Test [1] deals with T1, HCV NS3/4A protease complex, J4L6S strain (Hepatitis C virus genotype 1b, UniProt O92972, C1454S/C1711G).
T1 construct: DNA encoding the recombinant HCV NS3/4A protease complex (amino acids 1027 to 1711) for these strains; His tag (inferred from pET21b vector and Ni-NTA purification); made in house; host or cells: Escherichia coli BL21 (DE3), pET21b
Nature of the test: FRET peptide assay to monitor HCV NS3/4A proteolytic activity (J4L6S strain). Type of test: biochemical, Hepatitis C virus (1b genotype). From the text: HCV […] protease complexes, derived from the BMS strain, H77 strain or J4L6S strain, were generated, as described below. These purified recombinant proteins were generated for use in a homogeneous assay (see below) to provide an indication of how effective compounds of the present disclosure would be in inhibiting HCV NS3 proteolytic activity.
Serum from an HCV-infected patient was obtained from Dr. T. Wright, San Francisco Hospital. An engineered full-length cDNA (compliment deoxyribonucleic acid) template of the HCV genome (BMS strain) was constructed from DNA fragments obtained by reverse transcription-PCR (RT-PCR) of serum RNA (ribonucleic acid) and using primers selected on the basis of homology between other genotype 1a strains. From the determination of the entire genome sequence, a genotype 1a was assigned to the HCV isolate according to the classification of Simmonds et al. (See Simmonds, P. et al., J. Clin. Microbiol., 31(6), 1493-1503 (1993)). […] The infectious clones, H77 (1a genotype) and J4L6S (1b genotype) were obtained from R. Purcell (NIH) and the sequences are published in GENBANK® (AAB67036, see Yanagi, M. et al., Proc. Natl. Acad. Sci. U.S.A., 94(16):8738-8743 (1997); AF054247, see Yanagi, M. et al., Virology, 244(1):161-172 (1998)).
The H77 and J4L6S strains were used for production of recombinant NS3/4A protease complexes. […]

The target in test [2] is T2, human neutrophil elastase (HNE) (Homo sapiens, UniProt P08246).
T2 construct: purchased Sigma, EMDbiosciences
T2 sequence (P08246 30-267): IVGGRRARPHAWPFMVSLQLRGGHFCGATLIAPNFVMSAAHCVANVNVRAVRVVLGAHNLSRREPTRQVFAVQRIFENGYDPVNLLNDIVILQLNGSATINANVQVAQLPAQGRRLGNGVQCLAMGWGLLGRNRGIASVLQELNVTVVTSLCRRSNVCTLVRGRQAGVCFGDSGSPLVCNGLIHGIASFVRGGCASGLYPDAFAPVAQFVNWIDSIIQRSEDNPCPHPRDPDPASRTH
Briefly: Specificity assay, human neutrophil elastase. Type of test: biochemical. Particulars: read-out: HLE (specificity assay IC50). Here is the method:
The specificities of compounds of the present disclosure were determined against a variety of serine proteases: human neutrophil elastase (HNE), porcine pancreatic elastase (PPE) and human pancreatic chymotrypsin and one cysteine protease: human liver cathepsin B. In all cases a 96-well plate format protocol using a fluorometric Amino-Methyl-Coumarin (AMC) substrate specific for each enzyme was used as described previously (PCT Patent Application No. WO 00/09543) with some modifications to the serine protease assays. All enzymes were purchased from Sigma, EMDbiosciences while the substrates were from Bachem, Sigma and EMDbiosciences.
Compound concentrations varied from 100 to 0.4 μM depending on their potency. The enzyme assays were each initiated by addition of substrate to enzyme-inhibitor pre-incubated for 10 min at room temperature and hydrolysis to 15% conversion as measured on CYTOFLUOR®.
50 mM Tris-HCl, pH 8.0, 50 mM NaCl, 0.1 mM […], 3% DMSO, 0.02% Tween-20, 5 μM succ-AAPV-AMC and 20 nM HNE or 8 nM PPE;
The percentage of inhibition was calculated using the formula: [1−((UVinh−UVblank)/(UVctl−UVblank))]×100
A non-linear curve fit was applied to the inhibition-concentration data, and the 50% effective concentration (IC50) was calculated by the use of Excel XLfit software.

T1 sequence (O92972 1027-1711 C1454S/C1711G, one chain of several): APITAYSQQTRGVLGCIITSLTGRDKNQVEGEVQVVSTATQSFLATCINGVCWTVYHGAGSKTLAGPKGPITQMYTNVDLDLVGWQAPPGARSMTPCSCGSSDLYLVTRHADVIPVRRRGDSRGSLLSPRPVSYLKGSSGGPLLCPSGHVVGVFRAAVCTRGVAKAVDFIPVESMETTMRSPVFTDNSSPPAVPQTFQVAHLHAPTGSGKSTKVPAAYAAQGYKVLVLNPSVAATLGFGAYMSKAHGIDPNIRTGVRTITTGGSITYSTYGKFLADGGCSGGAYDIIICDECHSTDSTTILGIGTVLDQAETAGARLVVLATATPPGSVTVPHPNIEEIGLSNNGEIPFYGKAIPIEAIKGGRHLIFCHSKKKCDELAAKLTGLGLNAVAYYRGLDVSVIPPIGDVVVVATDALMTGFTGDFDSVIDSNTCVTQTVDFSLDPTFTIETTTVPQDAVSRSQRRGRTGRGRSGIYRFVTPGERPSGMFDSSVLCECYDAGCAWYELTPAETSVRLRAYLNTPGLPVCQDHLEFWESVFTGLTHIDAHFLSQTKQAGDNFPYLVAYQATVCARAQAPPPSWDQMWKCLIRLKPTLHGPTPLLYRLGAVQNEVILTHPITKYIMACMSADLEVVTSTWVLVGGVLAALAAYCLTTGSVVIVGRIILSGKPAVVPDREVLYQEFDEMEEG

As for `C=C[C@@H]1C[C@]1(NC(=O)[C@@H]1C[C@@](SCCCC)(c2ccc(-c3ccccc3)cc2)CN1C(=O)[C@@H](NC(=O)OC(C)(C)C)C(C)(C)C)C(=O)NS(=O)(=O)C1CC1` [Example 1, tert-butyl (S)-1-((2S,4R)-4-(biphenyl-4-yl)-4-(butylthio)-2-((1R,2S)-1-(cyclopropylsulfonylcarbamoyl)-2-vinylcyclopropylcarbamoyl)pyrrolidin-1-yl)-3,3-dimethyl-1-oxobutan-2-ylcarbamate], the IC50 (usually the concentration that gives 50% inhibition) in test [1] is 1.1 nM; in test [2] it was greater than 12100 nM.
